Assay results taken from ChEMBL document CHEMBL1131586, “New antipsychotic agents with serotonin and dopamine antagonist properties based on a pyrrolo[2,1-b][1,3]benzothiazepine structure” (J Med Chem, 1998).

Legend:
Rattus norvegicus [1] = assay: Effect of compound on apomorphine induced locomotor hyperactivity (APO-induced LMA), […] at 1 umol/kg upon subcutaneous administration; LMA (locomotor activity); assay type: functional
Rattus norvegicus [2] = assay: Effect of compound on apomorphine induced locomotor hyperactivity (APO-induced LMA), […] at 10 umol/kg upon subcutaneous administration; LMA (locomotor activity); assay type: functional
Rattus norvegicus [3] = assay: Effect of compound on […], […] at 3 umol/kg upon subcutaneous administration; Catalepsy = 0/4; assay type: functional
Rattus norvegicus [4] = assay: Effect of compound on […], […] at 30 umol/kg upon subcutaneous administration; Catalepsy = 4/4; assay type: functional
Rattus norvegicus [5] = assay: Effect of compound on apomorphine induced locomotor hyperactivity (APO-induced LMA), […] at 30 umol/kg upon subcutaneous administration; LMA (locomotor activity); assay type: functional
Rattus norvegicus [6] = assay: Effect of compound on apomorphine induced locomotor hyperactivity (APO-induced LMA), […] at 3 umol/kg upon subcutaneous administration; LMA (locomotor activity); assay type: functional
Rattus norvegicus [7] = assay: Effect of compound on […], […] at 1 umol/kg upon subcutaneous administration; Catalepsy = 0/4; assay type: functional
Rattus norvegicus [8] = assay: Effect of compound on […], […] at 10 umol/kg upon subcutaneous administration; Catalepsy = 1/4; assay type: functional
[9] = biological target: T1, Serotonin 2 (5-HT2) receptor (Rattus norvegicus, UniProt P30994+P08909+P14842)
Description: Binding affinity which represents concentration giving half-maximal inhibition of [3H]ketanserin binding to 5-hydroxytryptamine 2 receptor rat tissue homogenate

Rattus norvegicus [10] = assay: Effect of compound on […], […] at 10 umol/kg upon subcutaneous administration; Catalepsy = 0/4; assay type: functional
[11] = biological target: T1, Serotonin 2 (5-HT2) receptor; remark: listed apart in the source
Description: pKi value for 5-hydroxytryptamine 2 receptor binding site

Rattus norvegicus [12] = assay: Effect of compound on […], […] at 30 umol/kg upon subcutaneous administration; Catalepsy = 0/4; assay type: functional
D(3) dopamine receptor = D(3) dopamine receptor (Rattus norvegicus, UniProt P19020)
Description: Binding affinity which represents concentration giving half-maximal inhibition of [3H]7-OH-DPAT binding to Dopamine receptor D3 in rat tissue homogenate

[13] = biological target: Sodium-dependent dopamine transporter (Rattus norvegicus) (UniProt P23977); assay: Inhibition of dopamine uptake from dopamine uptake site
Sodium-dependent dopamine transporter (Rattus norvegicus), sequence (P23977 whole entry, looked up): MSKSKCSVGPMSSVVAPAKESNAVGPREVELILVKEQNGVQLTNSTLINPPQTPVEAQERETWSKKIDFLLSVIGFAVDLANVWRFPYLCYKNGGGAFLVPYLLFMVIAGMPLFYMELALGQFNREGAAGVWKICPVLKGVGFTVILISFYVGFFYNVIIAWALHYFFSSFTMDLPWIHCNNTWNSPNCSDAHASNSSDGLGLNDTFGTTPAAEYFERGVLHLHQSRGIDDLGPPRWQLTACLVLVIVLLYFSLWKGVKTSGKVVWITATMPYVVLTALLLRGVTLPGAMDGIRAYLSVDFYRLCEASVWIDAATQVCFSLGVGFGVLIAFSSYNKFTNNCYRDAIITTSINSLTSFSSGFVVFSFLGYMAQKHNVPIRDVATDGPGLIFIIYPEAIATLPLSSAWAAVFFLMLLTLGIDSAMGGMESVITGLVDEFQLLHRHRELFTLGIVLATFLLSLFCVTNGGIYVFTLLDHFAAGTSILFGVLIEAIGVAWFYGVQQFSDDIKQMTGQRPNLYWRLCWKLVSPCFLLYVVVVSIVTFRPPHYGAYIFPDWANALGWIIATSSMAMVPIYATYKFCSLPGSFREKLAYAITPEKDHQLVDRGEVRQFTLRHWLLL

D(3) dopamine receptor, sequence (P19020 whole entry): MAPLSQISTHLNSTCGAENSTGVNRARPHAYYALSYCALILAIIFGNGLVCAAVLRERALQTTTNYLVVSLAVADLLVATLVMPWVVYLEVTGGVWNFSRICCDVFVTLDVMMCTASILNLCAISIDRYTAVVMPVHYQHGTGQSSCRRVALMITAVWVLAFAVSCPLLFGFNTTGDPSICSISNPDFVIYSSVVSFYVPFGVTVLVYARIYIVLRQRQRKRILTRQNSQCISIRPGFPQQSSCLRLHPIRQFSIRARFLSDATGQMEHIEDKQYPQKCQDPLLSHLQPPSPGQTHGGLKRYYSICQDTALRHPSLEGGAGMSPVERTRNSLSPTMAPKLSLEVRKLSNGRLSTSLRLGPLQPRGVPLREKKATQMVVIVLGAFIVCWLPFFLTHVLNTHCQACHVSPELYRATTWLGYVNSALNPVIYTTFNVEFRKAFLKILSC

Row | Structure (SMILES) | LMA (Rattus norvegicus [1]) | LMA (Rattus norvegicus [2]) | Catalepsy (Rattus norvegicus [3]) | Catalepsy (Rattus norvegicus [4]) | LMA (Rattus norvegicus [5]) | LMA (Rattus norvegicus [6]) | Catalepsy (Rattus norvegicus [7]) | Catalepsy (Rattus norvegicus [8]) | Ki [9] [nM] | Catalepsy (Rattus norvegicus [10]) | Log Ki [11] | Catalepsy (Rattus norvegicus [12]) | Ki (D(3) dopamine receptor) [nM] | IC50 [13] [nM]
1 | CN1CCN(C2Cn3cccc3Sc3ccc(Cl)cc32)CC1.Cl.Cl (racemic) | 877 | 43 | 0 | 4 | 39 | 40 | 0 | 1 | – | – | – | – | – | –
2 | Cc1cc2c(s1)Nc1ccccc1N=C2N1CCN(C)CC1 [OLANZAPINE] | 323 | 47 | – | – | 4 | – | 0 | – | 12 | 0 | -7.9 | 0 | – | –
3 | CN1CCN(C2Cn3cccc3Sc3ccc(Cl)cc32)CC1 (racemic) | – | – | – | – | – | – | – | – | – | – | – | – | 4.1 | 6500
